Assay results taken from patent US20080249023A1 (priority 2004, published 2008).
Ends that are not written are not given here.

Legend:
Bacillus subtilis = format: cell-based

Sequence	effect on Bacillus subtilis in time kill assay (Bacillus subtilis)	detergent-like (lytic) activity (sheep red blood cells)
RFARKGALRQKNV [Protein kinase C]	no effect	
TRKKLFHIFHATIRSR [PAD-1.17, TRKKLFHIFHATIRSR]		did not appear to act as a detergent
